Results: PubChem BioAssay (NCI)
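Test compounds were applied to cells in 96-well plates for 48 hours at 5 doses. The concentration for full growth arrest is given as TGI.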

Key:
Test in all cases: growth of human tumour cells (NCI), 48 h
[1] = system: CCRF-CEM leukemia
[2] = system: HL-60(TB) leukemia
[3] = system: RPMI-8226 leukemia
[4] = system: COLO 205 colon
[5] = system: SK-MEL-2 melanoma
[6] = system: RXF 393 renal
[7] = system: UACC-62 melanoma
[8] = system: SW-620 colon
[9] = system: SNB-78 CNS
[10] = system: M14 melanoma
[11] = system: HCT-116 colon
[12] = system: UACC-257 melanoma
[13] = system: HOP-62 NSCLC
[14] = system: U251 CNS
[15] = system: NCI-H226 lung
[16] = system: OVCAR-3 ovarian
[17] = system: NCI-H522 lung
[18] = system: DMS 273 small cell lung
[19] = system: TK-10 renal
[20] = system: OVCAR-5 ovarian
[21] = system: NCI-H460 lung
[22] = system: KM20L2 colon
[23] = system: SNB-75 CNS
[24] = system: SK-OV-3 ovarian
[25] = system: HCT-15 colon
[26] = system: HOP-92 NSCLC
[27] = system: OVCAR-4 ovarian
[28] = system: SR leukemia
[29] = system: LXFL 529 NSCLC
[30] = system: LOX IMVI melanoma
[31] = system: M19-MEL melanoma
[32] = system: HCC-2998 colon
[33] = system: HT29 colon
[34] = system: SK-MEL-28 melanoma
[35] = system: KM12 colon
[36] = system: RXF-631 renal
[37] = system: SN12C renal
[38] = system: ACHN renal
[39] = system: A549 NSCLC
[40] = system: 786-0 renal
[41] = system: EKVX NSCLC
[42] = system: DLD-1 colon
[43] = system: IGROV1 ovarian
[44] = system: UO-31 renal
[45] = system: XF 498 CNS
[46] = system: MALME-3M melanoma
[47] = system: SNB-19 CNS
[48] = system: DMS 114 small cell lung
[49] = system: SK-MEL-5 melanoma
[50] = system: MOLT-4 leukemia
[51] = system: SF-539 CNS
[52] = system: SF-295 CNS
[53] = system: CAKI-1 renal
[54] = system: NCI-H23 lung
[55] = system: K-562 leukemia
[56] = system: SF-268 CNS
[57] = system: OVCAR-8 ovarian
[58] = system: A498 renal
[59] = system: HOP-18 NSCLC

NCCOc1ccc(/C(=C(/Cl)c2ccccc2)c2ccccc2)cc1
TGI [1]: 24.6 µM | TGI [2]: 7.61 µM | TGI [3]: 11 µM | TGI [4]: 3.59 µM | TGI [5]: 29.1 µM | TGI [6]: 13.8 µM | TGI [7]: 25.3 µM | TGI [8]: 16.1 µM | TGI [9]: 25 µM | TGI [10]: 5.29 µM | TGI [11]: 20.2 µM | TGI [12]: 24.8 µM | TGI [13]: 32.7 µM | TGI [14]: 23.7 µM | TGI [15]: 36.7 µM | TGI [16]: 26.2 µM | TGI [17]: 26.4 µM | TGI [18]: 25.5 µM | TGI [19]: 26.2 µM | TGI [20]: 30.8 µM | TGI [21]: 21.6 µM | TGI [22]: 19.9 µM | TGI [23]: 24.1 µM | TGI [24]: 31.7 µM | TGI [25]: 19.1 µM | TGI [26]: 16.8 µM | TGI [27]: 28.7 µM | TGI [28]: 12.1 µM | TGI [29]: 20 µM | TGI [30]: 16.6 µM | TGI [31]: 23.8 µM | TGI [32]: 14.8 µM | TGI [33]: 7.81 µM | TGI [34]: 18.6 µM | TGI [35]: 16.7 µM | TGI [36]: 26.3 µM | TGI [37]: 24 µM | TGI [38]: 27.2 µM | TGI [39]: 31.5 µM | TGI [40]: 20.7 µM | TGI [41]: 30.1 µM | TGI [42]: 33.3 µM | TGI [43]: 29.9 µM | TGI [44]: 21.4 µM | TGI [45]: 17.6 µM | TGI [46]: 24.3 µM | TGI [47]: 28.9 µM | TGI [48]: 27.1 µM | TGI [49]: 22.3 µM | TGI [50]: 14.7 µM | TGI [51]: 28.9 µM | TGI [52]: 28.9 µM | TGI [53]: 23.2 µM | TGI [54]: 30.7 µM | TGI [55]: 14.8 µM | TGI [56]: 29.8 µM | TGI [57]: 29.6 µM | TGI [58]: 34.1 µM

O=C(Nc1cccc(C(F)(F)F)c1)C(=O)C(C(=O)c1ccc(Cl)c(Cl)c1)C1OC(=O)c2ccccc21 (stereo not given)
TGI [1]: > 100 µM | TGI [2]: > 100 µM | TGI [3]: > 100 µM | TGI [4]: > 100 µM | TGI [6]: 41.7 µM | TGI [7]: 88.3 µM | TGI [8]: > 100 µM | TGI [9]: > 100 µM | TGI [10]: > 100 µM | TGI [11]: 34.7 µM | TGI [12]: > 100 µM | TGI [13]: > 100 µM | TGI [14]: > 100 µM | TGI [15]: 62.5 µM | TGI [16]: > 100 µM | TGI [17]: > 100 µM | TGI [18]: > 100 µM | TGI [19]: > 100 µM | TGI [20]: > 100 µM | TGI [21]: > 100 µM | TGI [22]: > 100 µM | TGI [23]: 92.3 µM | TGI [24]: > 100 µM | TGI [25]: > 100 µM | TGI [26]: > 100 µM | TGI [27]: > 100 µM | TGI [28]: > 100 µM | TGI [29]: > 100 µM | TGI [30]: > 100 µM | TGI [31]: 54 µM | TGI [32]: > 100 µM | TGI [33]: > 100 µM | TGI [35]: > 100 µM | TGI [36]: > 100 µM | TGI [37]: > 100 µM | TGI [38]: > 100 µM | TGI [39]: > 100 µM | TGI [40]: > 100 µM | TGI [41]: > 100 µM | TGI [42]: > 100 µM | TGI [43]: > 100 µM | TGI [44]: > 100 µM | TGI [45]: > 100 µM | TGI [46]: 76.9 µM | TGI [47]: > 100 µM | TGI [48]: 78.6 µM | TGI [50]: > 100 µM | TGI [59]: > 100 µM | TGI [53]: > 100 µM | TGI [54]: > 100 µM | TGI [55]: > 100 µM | TGI [56]: > 100 µM | TGI [57]: > 100 µM | TGI [58]: 79.8 µM

CCCCCCCCCCC(=O)CCCCCCC(=O)O
TGI [1]: 73.8 µM | TGI [2]: 18.7 µM | TGI [3]: 32.3 µM | TGI [4]: 29.8 µM | TGI [5]: > 100 µM | TGI [6]: 91.5 µM | TGI [7]: 35.5 µM | TGI [8]: 55.7 µM | TGI [9]: > 100 µM | TGI [10]: 47.9 µM | TGI [11]: 26.7 µM | TGI [12]: > 100 µM | TGI [13]: 68.8 µM | TGI [14]: 86.1 µM | TGI [15]: > 100 µM | TGI [16]: 40 µM | TGI [17]: 50.5 µM | TGI [18]: 47.1 µM | TGI [19]: > 100 µM | TGI [20]: 51.3 µM | TGI [21]: 30.9 µM | TGI [23]: > 100 µM | TGI [24]: > 100 µM | TGI [25]: 28 µM | TGI [26]: 35.8 µM | TGI [27]: > 100 µM | TGI [28]: 44.2 µM | TGI [29]: 40.1 µM | TGI [30]: 31.4 µM | TGI [31]: 74.7 µM | TGI [32]: 36.1 µM | TGI [33]: 36.1 µM | TGI [34]: > 100 µM | TGI [35]: 29.9 µM | TGI [36]: 43.3 µM | TGI [37]: 75.2 µM | TGI [38]: 56.6 µM | TGI [39]: 32.2 µM | TGI [40]: 39.6 µM | TGI [41]: > 100 µM | TGI [42]: 47.2 µM | TGI [43]: 34.9 µM | TGI [44]: 71.9 µM | TGI [45]: 97.8 µM | TGI [46]: 45 µM | TGI [47]: > 100 µM | TGI [48]: 50.3 µM | TGI [49]: 29.3 µM | TGI [50]: 36.8 µM | TGI [51]: 43.8 µM | TGI [52]: 48.7 µM | TGI [59]: 39 µM | TGI [53]: 81.5 µM | TGI [54]: 98.4 µM | TGI [55]: 26.9 µM | TGI [56]: > 100 µM | TGI [57]: 33.7 µM | TGI [58]: 42.7 µM
